Patent publication US7695736B2, “Reconstitutable parenteral composition” (Pfizer Inc., priority 2001, dated 2010)

Legend:
COX-1 = COX-1 (Homo sapiens, UniProt P23219); conditions: in vitro; cited from earlier work
physchem = conditions: 20 °C, thermodynamic from solid
[1] = human pharmacokinetic study: blood plasma concentration of valdecoxib; assay type: in vivo
Description: Subjects drank 180 ml water one, two and three hours postdose.

[2] = tested on: patients requiring extraction of two ipsilateral impacted third molars; experiment: placebo-controlled single-dose preemptive analgesia study, third molar extraction; assay type: in vivo, human
Description: Beginning at 30 minutes after closure of surgery, level of pain was assessed every two hours up to 24 hours, except that patients were not awakened for pain assessments. Pain was assessed by the patient on a 0-3 scale and on a chart representing a continuum from “no pain” to “worst pain”. Rescue medication was administered on demand by the patient. At the last scheduled assessment, or immediately prior to administration of rescue medication, the patient was asked to evaluate the effectiveness of the study medication to delay pain. Time to rescue medication (TRM) was analyzed using survival analysis techniques. The median time to event for each treatment group was calculated using the Kaplan-Meier product limit estimator, including the adjustment described by Miller (1981) in Survival Analysis, pp. 74-75. New York: John Wiley & Sons. Ninety five percent (95%) confidence intervals for the median time to event were calculated using the method of Simon & Lee (1982), Cancer Treat. Rep. 66, 37-42. […] Patients who dropped out for reasons other than administration of rescue medication were censored at the time they dropped out of the study.

[3] = single preemptive intravenous dose 40 mg

Sequence of COX-1 (P23219 24-599): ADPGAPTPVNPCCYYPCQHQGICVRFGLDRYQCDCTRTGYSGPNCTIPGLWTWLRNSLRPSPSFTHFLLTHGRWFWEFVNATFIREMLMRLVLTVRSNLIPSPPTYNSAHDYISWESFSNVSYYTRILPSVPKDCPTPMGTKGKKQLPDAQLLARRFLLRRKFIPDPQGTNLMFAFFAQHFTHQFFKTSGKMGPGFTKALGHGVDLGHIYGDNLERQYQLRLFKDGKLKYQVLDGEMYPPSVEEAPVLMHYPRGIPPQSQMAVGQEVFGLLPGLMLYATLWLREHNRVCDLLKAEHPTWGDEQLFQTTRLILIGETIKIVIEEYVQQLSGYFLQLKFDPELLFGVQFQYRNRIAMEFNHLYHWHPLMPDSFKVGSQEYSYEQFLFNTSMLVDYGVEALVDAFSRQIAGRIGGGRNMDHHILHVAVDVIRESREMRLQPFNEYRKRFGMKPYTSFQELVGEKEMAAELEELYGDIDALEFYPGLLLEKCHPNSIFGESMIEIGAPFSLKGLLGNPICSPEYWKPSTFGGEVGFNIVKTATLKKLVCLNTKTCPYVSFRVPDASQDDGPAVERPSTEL

Row | solubility thermodynamic (physchem; pH 7.3, aqueous buffer) [mg/mL] | solubility thermodynamic (physchem; pH 7.8, aqueous buffer) [mg/mL] | solubility thermodynamic (physchem; pH 8.2, aqueous buffer) [mg/mL] | time at which maximum blood plasma concentration of valdecoxib was reached ([1]; human, 20 mg IV bolus vs 20 mg valdecoxib oral immediate-release tablet) | Compound | inhibitory activity against COX-1 (COX-1) | conversion to valdecoxib after parenteral administration ([1]; human subject, parenteral) | patients rating the study medication as good or excellent ([2]; 40 mg treatment group) [%] | patient's evaluation of effectiveness scores compared with placebo ([2]; each parecoxib treatment group) | proportion of patients taking rescue medication compared with placebo ([2]; parecoxib treatment groups 20, 40, 80 mg) | TRM compared with placebo ([2]; single doses 20 mg, 40 mg and 80 mg) | Patients taking rescue medication ([2]; single preemptive intravenous dose 20 mg) [%] | Median TRM (time to rescue medication) [2, 3] [h] | Patients taking rescue medication [2, 3] [%] | Patients taking rescue medication ([2]; single preemptive intravenous dose 80 mg) [%]
1 |  |  |  |  | Cc1onc(-c2ccccc2)c1-c1ccc(S(N)(=O)=O)cc1 [valdecoxib] | weak inhibitor |  |  |  |  |  |  |  |  | 
2 | 1 | 18 | 220 | earlier | CCC(=O)NS(=O)(=O)c1ccc(-c2c(-c3ccccc3)noc2C)cc1 [parecoxib sodium] |  |  |  |  |  |  |  |  |  | 
3 |  |  |  |  | CCC(=O)NS(=O)(=O)c1ccc(-c2c(-c3ccccc3)noc2C)cc1 [Parecoxib, parecoxib] | weak in vitro inhibitory activity | rapidly and completely converted to valdecoxib | 92 | significantly higher | significantly lower | significantly longer TRM than placebo | 78 | >24 | 48 | 59
